# Experimental data published in patent publication US20220348592A1, “FUSED HETEROCYCLIC DERIVATIVES” (Janssen Sciences Ireland Unlimited Company, priority 2019, published 2022).
# How the values were obtained:
# [1] = system: HBV; test: HBV replication inhibition assay (BDNA assay) in HepG2.2.15 cells; assay type: cell-based; conditions: Hepatitis B virus, HepG2.2.15, 144 h, 6 days treatment, encapsidated HBV DNA in supernatant, BDNA QuantiGene assay
# Protocol: HBV replication inhibition by the disclosed compounds were determined in cells infected or transfected with HBV or cells with stably integrated HBV, such as HepG2.2.15 cells (Sells et al. 1987). In this example, HepG2.2.15 cells were maintained in cell culture medium containing 10% fetal bovine serum (FBS), Geneticin, L-glutamine, penicillin and streptomycin. HepG2.2.15 cells were seeded in 96-well plates at a density of 40,000 cells/well and were treated with serially diluted compounds at a final DMSO concentration of 0.5% either alone or in combination by adding drugs in a checker box format. Cells were incubated with compounds for three days, after which medium was removed and fresh medium containing compounds was added to cells and incubated for another three days. At day 6, supernatant was removed and treated with DNase at 37° C. for 60 minutes, followed by enzyme inactivation at 75° C. for 15 minutes. […] HBV DNA was denatured by addition of 0.2 M NaOH and detected using a branched DNA (BDNA) QuantiGene assay kit according to manufacturer recommendation (Affymetrix). HBV DNA levels were also quantified using qPCR, based on amplification of encapsidated HBV DNA extraction with QuickExtraction Solution (Epicentre Biotechnologies) and amplification of HBV DNA using HBV specific PCR probes that can hybridize to HBV DNA and a fluorescently labeled probe for quantitation. In addition, cell viability of HepG2.2.15 cells incubated with test compounds alone or in combination was determined by using CellTitre-Glo reagent according to the manufacturer protocol (Promega). The mean background signal from wells containing only culture medium was subtracted from all other samples, and percent inhibition at each compound concentration was calculated by normalizing to signals from HepG2.2.15 cells treated with 0.5% DMSO using equation E1. […]
# where DMSOave is the mean signal calculated from the wells that were treated with DMSO control (0% inhibition control) and Xi is the signal measured from the individual wells. […]
# [2] = Cytotoxicity in HepG2.117 cells, ATPlite Luminescence Assay; assay type: cell-based, human; conditions: human, incubated for 3 days, mean value, read-out: TOX-HepG2.117 CC50 (μM, mean value)
# Protocol: (§1) Cytotoxicity of the compounds was tested using HepG2 or HepG2.117 cells, incubated for 3 days in the presence of compounds. The viability of the cells was assessed using the PERKIN ELMER ATPlite Luminescence Assay System.”
# [3] = system: HBV; test: Anti-HBV activity: intracellular HBV DNA by real-time PCR in HepG2.117 cell line; assay type: cell-based, Hepatitis B virus; conditions: read-out: HBV-AVE-HepG2.117 EC50 (μM, mean value)
# Procedure, shortened: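 HepG2.117 cells, a Tet-off inducible HBV-producing line, induced to replicate HBV and then treated with serially diluted compound. After 3 days, intracellular HBV DNA quantified by real-time PCR with HBV-specific primers and probe.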
# [4] = system: HepG2.117 cells; test: Cytotoxicity in HepG2.117 cells, ATPlite Luminescence Assay; assay type: cell-based, human; conditions: incubated for 3 days, mean value, read-out: TOX-HepG2.117 CC50 (μM, mean value)
# Protocol: as §1
# [5] = Hepatitis B virus, 72 h, HepG2.117 cells, 3 days of treatment, intracellular HBV DNA by real-time PCR, mean value
# [6] = Hepatitis B virus, HepG2.117, 72 h
SMILES,EC50 [1] [µM],CC50 at 3 days [2] [µM],"EC50 [3, 5] [µM]",further results
C[C@@H]1Cc2nn3c(c2CN1C(=O)Nc1ccc(F)c(C#N)c1)C(=O)N(C)C[C@H](c1cc[nH]n1)C3 (relative stereo) [Example 7a],0.037,,,
"CC(C)N1CCn2nc3c(c2C1=O)CN(C(=O)c1ccc(Cl)c(Cl)c1)CC3 [Compound 2, 2-(3,4-Dichlorobenzoyl)-9-(propan-2-yl)-1,2,3,4,8,9-hexahydropyrido[4′,3′:3,4]pyrazolo[1,5-a]-pyrazin-10(7H)-one]",,> 50,1.15,melting point: 190 °C
"CN1CC(c2ccn(C)n2)Cn2nc3c(c2C1=O)CN(C(=O)Nc1ccc(F)c(C#N)c1)CC3 (stereo not shown) [Example 5a, N-(3-Cyano-4-fluorophenyl)-10-methyl-8-(1-methyl-1H-pyrazol-3-yl)-11-oxo-3,4,8,9,10,11-hexahydro-1H-pyrido[4′,3′:3,4]pyrazolo[1,5-a][1,4]diazepine-2(7H)-carboxamide]",0.16,,,
"O=C1NCCCn2nc3c(c21)CN(C(=O)c1ccc(Cl)c(Cl)c1)CC3 [Compound 33, 2-(3,4-Dichlorobenzoyl)-1,2,3,4,7,8,9,10-octahydro-11H-pyrido[4′,3′:3,4]pyrazolo[1,5-a][1,4]-diazepin-11-one]",,> 50,9.61,melting point: 237 °C
"C[C@@H]1Cc2nn3c(c2CN1C(=O)Nc1ccc(F)c(C#N)c1)C(=O)N(C)CC(c1cc[nH]n1)C3 (single isomer, unassigned) [Example 9a, (3R,8R*)—N-(3-Cyano-4-fluorophenyl)-3,10-dimethyl-11-oxo-8-(1H-pyrazol-3-yl)-3,4,8,9,10,11-hexahydro-1H-pyrido[4′,3′:3,4]pyrazolo[1,5-a][1,4]diazepine-2(7H)-carboxamide]",0.26,,,
"C[C@@H]1Cc2nn3c(c2CN1C(=O)c1ccc(Cl)c(Cl)c1)C(=O)N(C)OC(CF)C3 (stereo in doubt) [Compound 47, (4*R,9R)-10-(3,4-Dichlorobenzoyl)-4-(fluoromethyl)-2,9-dimethyl-4,5,8,9,10,11-hexahydro-pyrido[4′,3′:3,4]pyrazolo[5,1-d][1,2,5]oxadiazepin-1(2H)-one]",,,,"CC50 [4]: 3.63 µM; EC50 ([3]; HepG2.117 cells, 3 days of treatment, intracellular HBV DNA by real-time PCR, mean value): 0.249 µM"
"O=C(c1ccc(Cl)c(Cl)c1)N1CCc2nn3c(c2C1)C(=O)N(Cc1ccccc1)CC3 [Compound 3, 9-Benzyl-2-(3,4-dichlorobenzoyl)-1,2,3,4,8,9-hexahydropyrido[4′,3′:3,4]pyrazolo[1,5-a]pyrazin-10(7H)-one]",,25.3,,"EC50 [3, 6]: 0.188 µM"
"C[C@@H]1Cc2nn3c(c2CN1C(=O)c1ccc(Cl)c(Cl)c1)C(=O)N([C@@H](C)c1nc[nH]n1)CC3 [Compound 30, (3R)-2-(3,4-Dichlorobenzoyl)-3-methyl-9-[(1S)-1-(1H-1,2,4-triazol-3-yl)ethyl]-1,2,3,4,8,9-hexa-hydropyrido[4′,3′:3,4]pyrazolo[1,5-a]pyrazin-10(7H)-one]",,> 50,,"EC50 [3, 6]: 1.5 µM"
CC(c1cccc2cccnc12)N1CCn2nc3c(c2C1=O)CN(C(=O)c1ccc(Cl)c(Cl)c1)[C@H](C)C3 (stereo partly shown) [Example C191],,33,0.097,
C[C@@H]1Cc2nn3c(c2CN1C(=O)c1ccc(Cl)c(Cl)c1)C(=O)N(Cc1nnn(C)n1)CC3 [Example C200],,> 50,0.25,
